Reference: US9737610B2 (priority 2010, dated 2017)
Entries after “also recorded” stand apart in the source; their conditions may differ.

Columns and labels:
[1] = Dog pharmacokinetics of API, amorphous and solid dispersion capsules, cross-over; parameters: species or system male beagle dogs; conditions: male, beagle, in vivo, po, 2200 mg
Protocol: Presented herein are dog pharmacokinetics (PK) studies comparing various forms of rifaximin. […] In the SD dosage form, the polymer used was HPMC-AS at a drug to polymer ratio of 50:50. The formulation also comprised pluronic F127 and crosscarmellose sodium (see Example 4). […] Blood was collected at timed intervals for 24 h after dosage administration, and plasma was harvested for LC-MS/MS analysis.

[2] = Physical stability assessment in 0.1N HCl at 37° C. (PLM); type: physicochemical
Protocol: For the assessment of physical stability for samples in a 0.1N HCl solution maintained at 37° C., observations were made and microscopy images were acquired using polarized light at different time points including 0, 6 and 24 hrs, as summarized in Table 6. Based on the absence of birefringent particles when samples were observed by PLM, dispersions prepared with HPMC-AS HG and HPMC-AS MG display the highest physical stability under this particular stress condition.

[3] = Physical stability assessment at 40° C./75% RH for 7 d (PLM, mDSC); type: physicochemical; conditions: after 40° C./75% RH for 7 d
Protocol: Each of the samples remained as irregular aggregates without birefringence/extinctions after stressed at 40° C./75% RH condition for 7 days. […] All of samples display a single apparent Tg at approximately 148° C.

[4] = Physical stability assessment at 60° C./dry for 7 d (PLM); type: physicochemical; conditions: after 60° C./dry for 7 d
Description: Each of the samples remained as irregular aggregates without birefringence/extinctions after stressed at this condition for 7 days.

in vivo = conditions: dog, po, 2200 mg

AUCINF_obs, mean [1] [ng·h/mL] | AUC_0-24, mean [1] [ng·h/mL] | AUClast, mean [1] [ng·h/mL] | Cmax, mean [1] [ng/mL] | half-life ([1]; Half-life, geometric mean) [h] | Tmax ([1]; Tmax, median) [h] | PLM results ([2]; 24 hrs) | time at which crystallization (birefringence/extinctions) was observed ([2]; PLM) [h] | PLM results ([2]; time 0) | PLM results [3] | PLM results [4] | Half-life, geometric mean [1] [h] | Tmax [1] [h] | mean exposure (AUCinf) as compared with API [1] [fold] | AUC (in vivo) [ng·h/mL] | AUC(0-inf) (in vivo) [ng·h/mL] | Cmax (in vivo) [ng/mL] | Tmax (in vivo) [h] | Structure (SMILES) | PLM results ([2]; 6 hrs)
104 | 82 | 81 | 44.93 | 6.98 | 1 | – | – | – | – | – | – | – | – | – | – | – | – | CO[C@H]1/C=C/O[C@@]2(C)Oc3c(C)c(O)c4c(O)c(c5c(nc6cc(C)ccn65)c4c3C2=O)NC(=O)/C(C)=C\C=C\[C@H](C)[C@H](O)[C@@H](C)[C@@H](O)[C@@H](C)[C@H](OC(C)=O)[C@@H]1C [API, Rifaximin] | –
– | – | – | – | – | – | agg., no B/E + a few B/E particles | 6 | agg., irr., no B/E | agg., irr., no B/E | agg., irr., no B/E | – | – | – | – | – | – | – | CO[C@H]1/C=C/O[C@@]2(C)Oc3c(C)c(O)c4c(O)c(c5c(nc6cc(C)ccn65)c4c3C2=O)NC(=O)/C(C)=C\C=C\[C@H](C)[C@H](O)[C@@H](C)[C@@H](O)[C@@H](C)[C@H](OC(C)=O)[C@@H]1C [(100:0) Rifaximin-only, Rifaximin] | clear view of B/E particles; also recorded: agg., no B/E + a few B/E particles
4027 | 3908 | 3908 | – | – | – | – | – | – | – | – | 5.88 | 1 | ~40 | 3910 | 4030 | 1390 | 2 | CO[C@H]1/C=C/O[C@@]2(C)Oc3c(C)c(O)c4c(O)c(c5c(nc6cc(C)ccn65)c4c3C2=O)NC(=O)/C(C)=C\C=C\[C@H](C)[C@H](O)[C@@H](C)[C@@H](O)[C@@H](C)[C@H](OC(C)=O)[C@@H]1C [amorph, Rifaximin] | –
